“And” between values parts separate entries of the source, which are not always exact repeats. Equal entries are not always repeated. Where two headings read alike, the source gives them in different places.
Key:
[1] = system: p97-dependent Ub^G76V-GFP degradation in HeLa cells; experiment: Ub^G76V-GFP degradation (turn-over) assay; assay type: cell-based, human
Procedure: Ub^G76V-GFP Degradation Assay
Two GFP images with 100 ms exposure time per well were acquired and the average GFP intensity per area of a HeLa cell was determined by using MetaXpress software. Mean GFP intensity of 300-500 cells was calculated using Excel. Normalized GFP intensity was calculated using the following formula: (Test compound−Background)/(Basal GFP intensity—Background). Where: Test compound is defined as Mean GFP intensity of Ub^G76V-GFP-expressing cells treated with the test compound. Background is defined as background GFP intensity of HeLa cells. Basal GFP intensity is defined as mean GFP intensity of Ub^G76V-GFP-expressing cells treated with DMSO. […] The percent of remaining k for each compound is calculated using the following formula: (Test compound/DMSO control)*100. Where: Test_compound is defined as k determined from wells containing test compound, DMSO control is defined as k determined from wells containing DMSO.

[2] = biological target: p97 (Homo sapiens, UniProt P55072); experiment: p97 ATPase assay (Kinase Glo Plus; biomol green for compounds that interfere with luciferase); assay type: biochemical
p97, sequence (P55072 2-806 limits assumed): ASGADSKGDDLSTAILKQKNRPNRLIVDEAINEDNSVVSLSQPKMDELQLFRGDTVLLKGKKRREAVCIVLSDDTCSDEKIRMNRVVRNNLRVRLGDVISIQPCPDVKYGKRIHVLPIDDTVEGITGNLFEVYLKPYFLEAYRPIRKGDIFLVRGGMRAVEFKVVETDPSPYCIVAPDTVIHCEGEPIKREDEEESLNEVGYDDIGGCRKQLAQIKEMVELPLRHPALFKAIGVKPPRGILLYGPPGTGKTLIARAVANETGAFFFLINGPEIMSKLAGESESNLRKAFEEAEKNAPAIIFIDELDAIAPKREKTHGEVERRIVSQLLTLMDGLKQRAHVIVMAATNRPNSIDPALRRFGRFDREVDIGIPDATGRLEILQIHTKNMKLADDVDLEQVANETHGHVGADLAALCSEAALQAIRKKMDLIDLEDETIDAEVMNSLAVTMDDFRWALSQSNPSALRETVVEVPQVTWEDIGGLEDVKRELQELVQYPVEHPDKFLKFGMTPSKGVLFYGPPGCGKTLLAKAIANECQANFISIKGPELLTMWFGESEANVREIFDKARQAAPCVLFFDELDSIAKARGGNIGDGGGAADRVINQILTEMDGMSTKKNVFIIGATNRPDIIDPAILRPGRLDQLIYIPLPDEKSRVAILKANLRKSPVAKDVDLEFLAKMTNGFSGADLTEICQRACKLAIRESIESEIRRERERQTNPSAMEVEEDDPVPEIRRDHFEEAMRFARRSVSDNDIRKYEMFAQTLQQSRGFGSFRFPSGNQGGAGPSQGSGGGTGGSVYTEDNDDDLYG
Procedure: Assay Buffer (20 μL of 2.5× concentration, where 1×=50 mM Tris pH 7.4, 20 mM MgCl2, 1 mM EDTA, 0.5 mM TCEP) was dispensed into each well of a 96 well plate. Purified p97 (25 μL of 50 μM) was diluted in 975 μL, of 1× Assay Buffer and 10 μL was dispensed in each well. Test compound (10 μL) or 5% DMSO (10 μL) was then added to each well and the plate was incubated at room temperature for 10 min. The ATPase assay was carried out by adding to each well 10 μL of 500 μM ATP (pH 7.5), incubating at room temperature for 60 min, and then adding 50 μL Kinase Glo Plus reagent (Promega) followed by a final 10 min incubation at room temperature in the dark. Luminescence was read on an Analyst AD (Molecular Devices). Compounds were assayed at a range of concentrations (0, 0.048, 0.24, 1.2, 6, 30 μM) in triplicate. The percent of remaining activity for each reaction was calculated using the following mathematical expression: ((Test Compound-High Control)/(Low Control-High Control))*100. Test_Compound is defined as wells containing test compound, Low_Control is defined as wells containing DMSO, High_Control is defined as wells containing no p97 protein. […] The result was expressed as mean +/− standard error. For assays with Myriad 12 and 19, 100 μL of biomol green reagent (Enzo Life Sciences) was added to each well instead of kinase Glo Plus (Promega) and absorbance at 630 nm was measured. This was done because these compounds interfered with luciferase activity. […]

[3] = Homo sapiens, HeLa, read-out: IC50 (μM) Ub^G76V-GFP turn over, Ub^G76V-GFP-expressing HeLa cells, degradation rate constant k from 90 to 180 min, mean +/- standard error
[4] = purified p97, ATP, 60 min room temperature, mean +/- standard error
[5] = Homo sapiens, HeLa, read-out: IC50 (μM) Ub^G76V-GFP turn over, p97-dependent Ub^G76V-GFP degradation turn-over assay

| SMILES | IC50 [1, 3] [µM] | IC50 ([1]; read-out: IC50 (μM) Ub^G76V-GFP turn over, Ub^G76V-GFP-expressing HeLa cells, degradation rate constant k from 90 to 180 min, mean +/- standard error) [µM] | IC50 [2, 4] | IC50 [1, 5] [µM] | IC50 ([2]; p97 ATPase assay) [µM] |
| --- | --- | --- | --- | --- | --- |
| COc1ccc(Nc2nc(NCc3ccccc3)c3ccccc3n2)cc1 [II-6] | 4.5 ± 1.1 | 4.8 ± 0.7 | 3.8 µM and 3.5 µM |  |  |
| O=[N+]([O-])c1cccc(Nc2nc(NCc3ccccc3)c3ccccc3n2)c1 [II-22] | 19 ± 2 |  | 5.2 ± 0.5 µM |  |  |
| c1ccc(CNc2nc(N3CCOc4ccccc43)nc3c2CCCC3)cc1 [VIII] | 3.5 ± 0.4 |  | 0.11 ± 0.03 µM |  |  |
| COc1cc2nc(NCc3ccccc3)nc(NCc3ccccc3)c2cc1OC [VI-4] | 8.8 ± 1.5 |  | 4.4 ± 1.8 µM |  |  |
| COc1cccc2c(NCc3ccccc3O)nc(N3CCOc4ccccc43)nc12 [XII-8] | 6 ± 0.6 |  | 4.6 ± 1 µM |  |  |
| Clc1cccc(CNc2nc(Nc3cccc(Cl)c3)nc3ccccc23)c1 [III-12] | 15 ± 4 |  | 5 ± 1.2 µM |  |  |
| Clc1cccc(Nc2nc(NCc3cccc(Br)c3)c3ccccc3n2)c1 [III-14] | 9.9 ± 2 |  | 3.7 ± 0.9 µM |  |  |
| Fc1ccc(CNc2nc(NCc3ccccc3)c3ccccc3n2)cc1 [IV-3] | 3.4 ± 0.5 |  | 2.6 ± 0.2 µM |  |  |
| COc1cccc2c(NCc3cccc(N(C)C)c3)nc(N3CCOc4ccccc43)nc12 [XII-2] |  |  |  | 19 ± 4 | 52 ± 10 |
| Fc1ccccc1CNc1nc(NCc2ccccc2)c2ccccc2n1 [IV-8] | 2.8 ± 0.4 |  | 2.9 ± 0.4 µM |  |  |
| Cc1ccc(Nc2nc(NCc3ccccc3)c3ccccc3n2)cc1F [V-7] | 5.2 ± 1.2 |  | 0.9 ± 0.2 µM |  |  |
| FC(F)(F)c1cc(CNc2nc(NCc3ccccc3)c3ccccc3n2)ccc1Cl [IV-18] | 2.2 ± 0.4 |  | 4.7 ± 1 µM |  |  |
| Clc1ccc(CNc2nc(Nc3cccc(Cl)c3)nc3ccccc23)cc1 [III-2] | 7.6 ± 2.4 |  | 2.8 ± 0.9 µM |  |  |
| c1ccc(CNc2nc(N3CCc4ccccc43)nc3ccccc23)cc1 [VII-2] | 11 ± 3 |  | 2 ± 0.5 µM |  |  |
| CC(Nc1nc(-c2ccccc2)nc2ccccc12)c1ccccc1 (centres unmarked) [Cpd I-29] |  |  |  | 13 ± 1 | 27 ± 14 |
| Fc1ccc2nc(NCc3ccccc3)nc(NCc3ccccc3)c2c1 [VI-15] | 8.2 ± 1.5 |  | 4.7 ± 0.4 µM |  |  |
| COc1cccc2c(NCc3ccccc3)nc(-n3c(=O)oc4ccccc43)nc12 [VII-17] | 5 ± 1 |  | 0.11 ± 0.03 µM |  |  |
| COc1cccc2c(NCc3ccccc3)nc(NC(N)=O)nc12 [XI-3] |  |  |  | 108 ± 31 | 49 ± 10 |
| COc1cccc2c(NCc3ccccc3)nc(N3CCN(C(C)=O)CC3)nc12 [XI-19] |  |  |  | > 20 | > 30 |
| COc1ccccc1CNc1nc(Nc2cccc(Cl)c2)nc2ccccc12 [III-10] | 11 ± 2 |  | 1.6 ± 0.4 µM |  |  |

| SMILES | IC50 [1, 3] [µM] | IC50 ([1]; read-out: IC50 (μM) Ub^G76V-GFP turn over, Ub^G76V-GFP-expressing HeLa cells, degradation rate constant k from 90 to 180 min, mean +/- standard error) [µM] | IC50 [2, 4] | IC50 [1, 5] [µM] | IC50 ([2]; p97 ATPase assay) [µM] |
| --- | --- | --- | --- | --- | --- |
| Fc1ccc(Nc2nc(NCc3ccccc3)c3ccccc3n2)cc1 [II-4] | 9.4 ± 1 |  | 3.8 ± 1.2 µM |  |  |
| Cc1cc(F)cc(Nc2nc(NCc3ccccc3)c3ccccc3n2)c1 [V-3] | 5.4 ± 0.8 |  | 0.7 ± 0.05 µM |  |  |
| CC(C)c1ccc(Nc2nc(N)nc(CCl)n2)cc1 [XIV] | 14 ± 2.4 |  | 15 ± 5 µM |  |  |
| Fc1cccc(CNc2nc(Nc3cccc(Cl)c3)nc3ccccc23)c1 [III-13] | 6.3 ± 1.7 |  | 1.2 ± 0.2 µM |  |  |
| Cc1ccccc1CNc1nc(NCc2ccccc2)c2ccccc2n1 [IV-6] | 1.9 ± 0.4 |  | 2.7 ± 0.5 µM |  |  |
| COc1cccc2c(NCc3ccccc3)nc(Nc3ccccc3O)nc12 [XI-10] | 2.8 ± 0.5 |  | 2.6 ± 0.4 µM |  |  |
| Cc1cccc(-c2nc(NCc3ccc(F)cc3)c3ccccc3n2)c1 [I-24] | 12 ± 0.8 |  | 15 ± 2 µM |  |  |
| COc1ccccc1CNc1nc(NCc2ccccc2)c2ccccc2n1 [IV-10] | 1.9 ± 0.2 |  | 3.6 ± 0.8 µM |  |  |
| COc1ccc(Cl)cc1Nc1nc(NCc2ccccc2)c2ccccc2n1 [V-10] | 16 ± 6 |  | 1.1 ± 0.2 µM |  |  |
| COc1cccc(CNc2nc(Nc3cccc(Cl)c3)nc3ccccc23)c1 [III-15] | 9.9 ± 1.6 |  | 1 ± 0.1 µM |  |  |
| COc1ccc(Nc2nc(N3CCN(c4ccc([N+](=O)[O-])cc4)CC3)nc3ccccc23)c(OC)c1 [XLIX] |  |  |  | 70 ± 16 | 43 ± 13 |
| c1ccc(-c2nc(N3CCc4ccccc4C3)c3ccccc3n2)cc1 [Cpd I-35] |  |  |  | 19 ± 5 | > 30 |
| Brc1ccccc1Nc1nc(NCc2ccccc2)c2ccccc2n1 [II-10] |  |  |  | 13 ± 2 | 64 ± 24 |
| COc1cccc2c(NCc3ccccc3)nc(Nc3nc4ccccc4s3)nc12 [XI-5] | 14 ± 2 |  | 0.5 ± 0.2 µM |  |  |
| c1ccc(CNc2nc(N3CCN(Cc4ccccc4)CC3)nc3ccccc23)cc1 [XXIII] |  |  |  | 12 ± 1 | 33 ± 8 |
| COc1cccc2c(NCc3ccccc3)nc(NCc3ccccc3)nc12 [VI-5, N2,N4-dibenzyl-8-methoxyquinazoline-2,4-diamine] | 10 ± 2 |  | 0.6 ± 0.06 µM |  |  |
| CN(Cc1ccccc1)c1nc(-c2ccccc2F)nc2ccccc12 [Cpd I-26] |  |  |  | 6 ± 2 | 25 ± 4 |
| Clc1ccc(Nc2nc(NCc3ccccc3)c3ccccc3n2)cc1 [II-3] | 5.9 ± 1.2 |  | 5.4 ± 2 µM |  |  |
| Cc1cccc(Nc2nc(NCc3ccccc3)c3ccccc3n2)c1 [II-12] | 3 ± 0.7 |  | 1.7 ± 0.5 µM |  |  |
| Clc1ccc(-c2nc(NCc3ccccc3)c3ccccc3n2)cc1 [I-6] | 20 ± 3 |  | 5.5 ± 1.9 µM |  |  |

| SMILES | IC50 [1, 3] [µM] | IC50 ([1]; read-out: IC50 (μM) Ub^G76V-GFP turn over, Ub^G76V-GFP-expressing HeLa cells, degradation rate constant k from 90 to 180 min, mean +/- standard error) [µM] | IC50 [2, 4] | IC50 [1, 5] [µM] | IC50 ([2]; p97 ATPase assay) [µM] |
| --- | --- | --- | --- | --- | --- |
| Brc1cccc2c(NCc3ccccc3)nc(NCc3ccccc3)nc12 [V1-9] | 30 ± 2 |  | 3.3 ± 0.9 µM |  |  |
| COc1cccc2c(NCc3ccccc3)nc(NC(=O)N(C)C)nc12 [XI-7] |  |  |  | 37 ± 7 | 60 ± 23 |
| Fc1ccccc1-c1nc(NCc2ccccc2Cl)c2ccccc2n1 [Cpd I-16] |  |  |  | 15 ± 3 | 26 ± 12 |
| COc1ccc(Nc2nc(NCc3ccccc3)c3ccccc3n2)cc1F [V-8] | 4.7 ± 0.8 |  | 0.9 ± 0.1 µM |  |  |
| COc1ccc(CNc2nc(-c3ccc(OC)cc3)nc3ccccc23)cc1 [I-20] | 15 ± 5 |  | 13 ± 4 µM |  |  |
| Clc1ccc(Nc2nc(NCc3ccccc3)c3ccccc3n2)cc1Cl [II-17] | 12 ± 2 |  | 8.1 ± 2.6 µM |  |  |
| COCCOc1cccc2c(NCc3ccccc3)nc(N3CCOc4ccccc43)nc12 [VII-14] | 6.5 ± 0.7 |  | 0.6 ± 0.03 µM |  |  |
| COc1ccc(-c2nc(NCc3ccc(F)cc3)c3ccccc3n2)cc1 [I-17] | 9.8 ± 3 |  | 7.8 ± 0.4 µM |  |  |
| c1ccc(CNc2nc(-c3ccccc3)nc3ccccc23)cc1 [I-2] | 12 ± 3 |  | 4.2 ± 2.3 µM |  |  |
| N#CC(C(=O)COC(=O)CCC(=O)c1ccc2c(c1)OCCO2)=C1Nc2ccccc2N1 [XVIII] | 6.3 ± 0.6 |  | 10 ± 4 µM |  |  |
| Brc1ccc2c(NCc3ccccc3)nc(NCc3ccccc3)nc2c1 [VI-16] |  |  |  | 10 ± 2 | 22 ± 4 |
| c1ccc(CNc2ccnc(N3CCOc4ccccc43)n2)cc1 [XX] |  |  |  | 27 ± 3 | 2.9 ± 0.2 |
| Brc1ccc(Nc2nc(NCc3ccccc3)c3ccccc3n2)cc1 [II-5] | 6 ± 0.8 |  | 1.8 ± 0.4 µM |  |  |
| COc1ccc(F)cc1Nc1nc(NCc2ccccc2)c2ccccc2n1 [V-11] | 9.3 ± 1 |  | 6.7 ± 3 µM |  |  |
| Fc1ccccc1Nc1nc(NCc2ccccc2)c2ccccc2n1 [II-9] | 10 ± 2 |  | 0.85 ± 0.17 µM |  |  |
| Fc1ccc2c(NCc3ccccc3)nc(NCc3ccccc3)nc2c1 [VI-11] | 6.1 ± 0.8 |  | 2.6 ± 0.5 µM |  |  |
| COc1cccc2c(NCc3ccccc3)nc(N(C)Cc3ccccc3)nc12 [XI-12] | > 20 |  | 7 ± 3 µM |  |  |
| COc1cccc2c(NCc3ccccc3)nc(-n3c(N)nc4ccccc43)nc12 [VII-16] | 0.9 ± 0.1 |  | 0.11 ± 0.03 µM |  |  |
| CN(Cc1ccccc1)c1nc(-c2ccc([N+](=O)[O-])cc2)nc2ccccc12 [I-28] | 28 ± 4 |  | 8.4 ± 4 µM |  |  |

Source: US20110288082A1, “METHODS AND COMPOSITIONS FOR INHIBITION OF THE TRANSITIONAL ENDOPLASMIC RETICULUM ATPASE” (priority 2010, published 2011)
